What all share (assay type): biochemical
Experiment [1] deals with T1, phosphorylated VEGF-R2Δ50 (FLVK-P) (Homo sapiens, UniProt P35968, DEL940-989/E990V).
T1 construct: VEGF-R2Δ50 contains residues 806-939 and 990-1171; made in house; host or cells: baculovirus/insect cells
The experiment is described as follows: VEGF-R2 coupled spectrophotometric (FLVK-P) assay. As to conditions: read-out: VEGF % inhibition at 20 μM, 20 μM; combinatorial library compounds. In short, it runs like this:
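Baculovirus-expressed human VEGF-R2Δ50 (residues 806-939/990-1171, E990V) was autophosphorylated with 3 mM ATP, 40 mM MgCl2 for 2 h at 4° C. ADP formation was coupled via PK/LDH to NADH oxidation, read at 340 nm, with 5.1 mM poly(E4Y1), 1 mM ATP, 25 mM MgCl2, Hepes pH 7.5. Ki came from activity across compound concentrations.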

A further experiment concerns the target T2, FL-CHK1 (Homo sapiens, UniProt O14757).
T2 construct: C-terminally His-tagged full-length human CHK1 (FL-CHK1); 6xHis (C); made in house; host or cells: baculovirus/insect cells
T2 sequence (O14757 1-476): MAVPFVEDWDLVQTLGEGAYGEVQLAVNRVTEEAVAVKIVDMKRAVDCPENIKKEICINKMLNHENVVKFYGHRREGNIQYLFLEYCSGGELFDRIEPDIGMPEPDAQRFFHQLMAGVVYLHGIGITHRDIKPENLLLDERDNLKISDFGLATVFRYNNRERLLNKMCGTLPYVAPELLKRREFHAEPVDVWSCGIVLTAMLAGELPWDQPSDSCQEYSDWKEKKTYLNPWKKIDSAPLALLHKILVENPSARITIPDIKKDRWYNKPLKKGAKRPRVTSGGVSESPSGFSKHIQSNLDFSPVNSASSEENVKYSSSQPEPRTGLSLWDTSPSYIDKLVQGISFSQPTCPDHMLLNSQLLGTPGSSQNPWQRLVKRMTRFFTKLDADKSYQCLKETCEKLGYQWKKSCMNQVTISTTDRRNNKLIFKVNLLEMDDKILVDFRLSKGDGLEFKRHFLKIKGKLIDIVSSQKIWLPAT
The experiment is described as follows: CHK1 assay. As to conditions: 20 μM; combinatorial library compounds. An excerpt: CHK-1 Construct for Assay: C-terminally His-tagged full-length human CHK1 (FL-CHK1) was expressed using the baculovirus/insect cell system. It contains 6 histidine residues (6×His-tag) at the C-terminus of the 476 amino acid human CHK1. The protein was purified by conventional chromatographic techniques.
The production of ADP from ATP that accompanies phosphoryl transfer to the synthetic substrate peptide Syntide-2 ([…]) was coupled to oxidation of NADH using phosphoenolpyruvate (PEP) through the actions of pyruvate kinase (PK) and lactic dehydrogenase (LDH). The oxidation of NADH was monitored by following the decrease of absorbance at 340 nm (ε340=6.22 cm^−1 mM^−1) using a HP8452 spectrophotometer. Typical reaction solutions contained: […]; 0.15 mM NADH; 28 units of LDH/ml; 16 units of PK/ml; 3 mM DTT; 0.125 mM Syntide-2; 0.15 mM ATP; 25 mM MgCl2 in 50 mM TRIS, pH 7.5; and 400 mM NaCl. Assays were initiated with 10 nM of FL-CHK1. Ki values were determined by measuring initial enzyme activity in the presence of varying concentrations of test compounds. The data were analyzed using Enzyme Kinetic and Kaleidagraph software.

The next experiment deals with CDK2/Cyclin A complex (Homo sapiens, UniProt P24941). The experiment can be described thus: CDK2/Cyclin A assay. As to conditions: for inhibition at 1 µM: combinatorial library compounds. An excerpt:
CDK2/Cyclin A Construct for Assay: CDK2 was purified using published methodology (Rosenblatt et al., J. Mol. Biol., 230, 1317-1319 (1993)) from insect cells that had been infected with a baculovirus expression vector. Cyclin A was purified from E. coli cells expressing full-length recombinant cyclin A, and a truncated cyclin A construct was generated by limited proteolysis and purified as described previously (Jeffrey et al., Nature, 376, 313-320 (Jul. 27, 1995)).
(§1) CDK2/Cyclin A and CDK4/Cyclin D Assays
(§2) Cyclin-dependent kinase activity was measured by quantifying the enzyme-catalyzed, time-dependent incorporation of radioactive phosphate from [^32P]ATP into a recombinant fragment of the retinoblastoma protein. Unless noted otherwise, assays were performed in 96-well plates in a total volume of 50 μL, in the presence of 10 mM HEPES (N-[2-hydroxyethyl]piperazine-N′-[2-ethanesulfonic acid]) (pH 7.4), 10 mM MgCl2, 25 μM adenosine triphosphate (ATP), 1 mg/mL ovalbumin, 5 μg/mL leupeptin, 1 mM dithiothreitol, 10 mM β-glycerophosphate, 0.1 mM sodium vanadate, 1 mM sodium fluoride, 2.5 mM ethylene glycol-bis(β-aminoethyl ether)-N,N,N′N′-tetraacetic acid (EGTA), 2% (v/v) dimethylsulfoxide, and 0.03-0.2 μCi [^32P]ATP. The substrate (0.3-0.5 μg) was purified recombinant retinoblastoma protein fragment (Rb) (residues 386-928 of the native retinoblastoma protein; 62.3 kDa, containing the majority of the phosphorylation sites found in the native 106-kDa protein, as well as a tag of six histidine residues for ease of purification). Reactions were initiated with CDK2 (150 nM CDK2/Cyclin A complex) or CDK4 (50 nM CDK4/Cyclin D3 complex), incubated at 30° C., and terminated after 20 minutes by the addition of ethylenediaminetetraacetic acid EDTA) to 250 mM. The phosphorylated substrate was then captured on a nitrocellulose membrane using a 96-well filtration manifold, and unincorporated radioactivity was removed by repeated washing with 0.85% phosphoric acid. Radioactivity was quantified by exposing the dried nitrocellulose membranes to a phosphorimager. Apparent Ki values were measured by assaying enzyme activity in the presence of different compound concentrations and subtracting the background radioactivity measured in the absence of enzyme. The kinetic parameters (kcat, Km for ATP) were measured for each enzyme under the usual assay conditions by determining the dependence of initial rates on ATP concentration. The data were fit to an equation for competitive inhibition using Kaleidagraph (Synergy Software), or were fit to an equation for competitive tight-binding inhibition using the software KineTic (BioKin, Ltd.). Measured Ki values for known inhibitors against CDK4 and CDK2 agreed with published IC50 values. The specific activity of CDK4 was the same whether complexed to full-length cyclin D3 or the truncated Cyclin D3 construct; both complexes also yielded very similar Ki values for selected inhibitors.

In the next experiment the target is T3, CDK4/Cyclin D3 complex (Homo sapiens, UniProt P11802).
T3 construct: made in house; host or cells: insect cells co-infected with baculovirus vectors
The experiment can be described thus: CDK4/Cyclin D assay. As to conditions: for inhibition at 1 µM: combinatorial library compounds; for inhibition at 100 µM: at 100 (printed 100 or 100 μM). The procedure:
CDK4/Cyclin D Construct for Assay: A complex of human CDK4 and cyclin D3, or a complex of cyclin DI and a fusion protein of human CDK4 and glutathione-S-transferase (GST-CDK4), was purified using traditional biochemical chromatographic techniques from insect cells that had been co-infected with the corresponding baculovirus expression vectors.
as §1, §2

T1 sequence (P35968 with tags, fused parts or gaps DEL940-989/E990V limits assumed): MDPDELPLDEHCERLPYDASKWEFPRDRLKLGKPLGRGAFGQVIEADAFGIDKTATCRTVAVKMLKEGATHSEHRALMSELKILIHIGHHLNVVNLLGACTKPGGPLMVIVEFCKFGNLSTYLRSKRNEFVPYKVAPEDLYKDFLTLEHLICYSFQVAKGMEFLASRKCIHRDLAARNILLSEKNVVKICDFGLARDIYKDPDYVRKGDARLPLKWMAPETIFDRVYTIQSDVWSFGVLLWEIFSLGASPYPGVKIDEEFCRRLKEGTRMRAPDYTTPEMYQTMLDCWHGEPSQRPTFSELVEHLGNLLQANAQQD
T3 sequence (P11802 whole entry): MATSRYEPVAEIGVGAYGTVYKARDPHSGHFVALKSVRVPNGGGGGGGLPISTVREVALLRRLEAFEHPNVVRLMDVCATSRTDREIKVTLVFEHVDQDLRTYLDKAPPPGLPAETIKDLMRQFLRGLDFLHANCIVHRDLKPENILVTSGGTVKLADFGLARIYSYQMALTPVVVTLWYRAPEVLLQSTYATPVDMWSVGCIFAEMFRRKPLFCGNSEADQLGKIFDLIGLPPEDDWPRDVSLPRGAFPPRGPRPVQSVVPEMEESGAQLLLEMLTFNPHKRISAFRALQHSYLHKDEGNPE
T3 sequence (P30281 whole entry partner): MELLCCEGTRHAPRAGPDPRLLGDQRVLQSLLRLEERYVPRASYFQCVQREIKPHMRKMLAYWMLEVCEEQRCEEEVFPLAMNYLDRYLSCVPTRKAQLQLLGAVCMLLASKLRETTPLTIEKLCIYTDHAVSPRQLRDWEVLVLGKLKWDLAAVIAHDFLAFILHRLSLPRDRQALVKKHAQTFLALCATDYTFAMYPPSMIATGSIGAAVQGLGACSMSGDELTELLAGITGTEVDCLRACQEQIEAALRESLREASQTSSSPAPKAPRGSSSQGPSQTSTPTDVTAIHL

Consider `CC(C)c1ccc(Nc2nc(N)c(-c3nc(-c4ccc(OC(=O)c5ccccc5)cc4)cs3)s2)cc1`, for which the inhibition at 20 µM is -4% in experiment [1] and 7.5% on FL-CHK1. The inhibition at 1 µM at CDK2/Cyclin A complex turned out to be 73%; at CDK4/Cyclin D3 complex it was 45.9%.

Consider `CN(C)c1ccc(Nc2nc(N)c(-c3nc(-c4cc(-c5ccc(Cl)c(Cl)c5)no4)cs3)s2)cc1`, for which the inhibition at 20 µM was 1% in experiment [1] and -2.8% on FL-CHK1. The values for the inhibition at 1 µM on CDK2/Cyclin A complex and at CDK4/Cyclin D3 complex were 12.6% and -17.5%, respectively.

For the molecule `CCOC(=O)c1ccc(-c2csc(-c3sc(Nc4cc(OC)c(OC)c(OC)c4)nc3N)n2)cc1` [A(11), 4-[4′-Amino-2′-(3,4,5-trimethoxy-phenylamino)-[2,5′]bithiazolyl-4-yl]-benzoic acid ethyl ester], the inhibition at 100 µM at CDK4/Cyclin D3 complex (Table 2) was 33%.

As to `CCOC(=O)c1cc(-c2csc(-c3sc(Nc4ccc(C(C)C)cc4)nc3N)n2)on1`, the results for the inhibition at 20 µM (in experiment [1]; on FL-CHK1) were 9% and -5.7%, respectively. Moreover, the figures for the inhibition at 1 µM on CDK2/Cyclin A complex and on CDK4/Cyclin D3 complex were 15% and 28.7%, respectively.

Take `Nc1cccc(C(=O)c2csc(-c3sc(Nc4ccc(S(N)(=O)=O)cc4)nc3N)n2)c1` [A(72), 4-[4-Amino-4-(3-amino-benzoyl)-[2,5′]bithiazoyl-2′-ylamino]-benzenesulfonamide]: on CDK2/Cyclin A complex (Table 2), the Ki was determined as 160 nM. Besides, at CDK4/Cyclin D3 complex (Table 2), the inhibition at 5 µM is 48%.

Consider `Nc1cccc(-c2csc(-c3sc(Nc4ccc(S(N)(=O)=O)cc4)nc3N)n2)c1` [C(3)], for which the results for the Ki on CDK2/Cyclin A complex (Table 2) and at CDK4/Cyclin D3 complex (Table 2) were 2700 nM and 4600 nM, respectively.

Turning to `Nc1nc(Nc2ccc(S(N)(=O)=O)cc2)sc1-c1nc(O)c(-c2ccc(O)cc2)s1` [H(2), 4-[4′-Amino-4-hydroxy-5-(4-hydroxy-phenyl)-[2,5′]bithiazolyl-2′-yl-amino]-benzenesulfonamide], the values for the Ki at CDK2/Cyclin A complex (Table 2) and on CDK4/Cyclin D3 complex (Table 2) were 10400 nM and 11000 nM, respectively.

Take `Nc1nc(Nc2ccc(S(N)(=O)=O)cc2)sc1-c1nc(O)c(-c2ccccc2O)s1` [H(4), 4-[4′-Amino-4-hydroxy-5-(2-hydroxy-phenyl)-[2,5′]bithiazoly-2′-ylamino]-benzenesulfonamide]: the figures for the Ki at CDK2/Cyclin A complex (Table 2) and at CDK4/Cyclin D3 complex (Table 2) were 2600 nM and 2100 nM, respectively.

In the case of `Nc1csc(-c2sc(Nc3ccc(S(N)(=O)=O)cc3)nc2N)n1` [H(6), 4-(4,4′-Diamino-[2,5′]bithiazolyl-2′-ylamino)-benzenesulfonamide], the Ki was 200 nM at CDK2/Cyclin A complex (Table 2) and 1200 nM on CDK4/Cyclin D3 complex (Table 2).

On to `Nc1nc(Nc2ccc(S(N)(=O)=O)cc2)sc1-c1nccn1Cc1ccc(Cl)cc1` [G(8), 4-{4-Amino-5-[1-(4-chloro-benzyl)-1H-imidazol-2-yl]-thiazol-2-ylamino}-benzenesulfonamide], for which, on CDK2/Cyclin A complex (Table 2), the Ki came out at 18000 nM. The inhibition at 100 µM at CDK4/Cyclin D3 complex (Table 2) is 31%.

Take `Nc1nc(Nc2ccc(S(N)(=O)=O)cc2)sc1C1=NC2(O)OCCC2S1` (stereo not shown) [H(5), 4-[4′-Amino-4-hydroxy-5-(2-hydroxy-ethyl)-3′H-1′-[2,5]bithiazolyl-2′-ylamino]-benzenesulfonamide]: the “CDK2 % inhibition @ 100” value on CDK2/Cyclin A complex (Table 2, at 100 (printed 100 or 100 μM)) was found to be 29% @. Further, the inhibition at 100 µM on CDK4/Cyclin D3 complex (Table 2) is under 0%.

In the case of `CN(C)CCNS(=O)(=O)c1ccc(Nc2nc(N)c(-c3nc(C(=O)c4ccccc4)cs3)s2)cc1` [A(71), 4-(4′-Amino-4-benzoyl-[2,5′]bithiazolyl-2′-ylamino)-N-(2-dimethylamino-ethyl)-benzenesulfonamide], the Ki at CDK2/Cyclin A complex (Table 2) is 29000 nM; on CDK4/Cyclin D3 complex (Table 2), 190000 nM.

As for `CN(C)CCNC(=O)c1csc(-c2sc(Nc3ccc(S(N)(=O)=O)cc3)nc2N)n1` [N(2), 4-Amino-2′-(4-sulfamoyl-phenylamino)-[2,5′]-bithiazoyl-4-carboxylic acid (2-dimethylamino-ethyl)-amide], the figures for the Ki on CDK2/Cyclin A complex (Table 3) and on CDK4/Cyclin D3 complex (Table 3) were 120 nM and 1300 nM, respectively.

For the molecule `COc1cc(Nc2nc(N)c(-c3cccc(Br)n3)s2)cc(OC)c1OC` [G(6), 5-(6-Bromo-pyridin-2-yl)-2-N-(3,4,5-trimethoxy-phenyl)-thiazole-2,4-diamine], the Ki at CDK4/Cyclin D3 complex (Table 2) came to 100000 nM.

Regarding `CCCCCc1ccc(-c2csc(-c3sc(Nc4ccc(S(N)(=O)=O)cc4)nc3N)n2)cc1`, the inhibition at 20 µM at FL-CHK1 is 10.8%. Moreover, the inhibition at 1 µM on CDK2/Cyclin A complex is -9.9%; on CDK4/Cyclin D3 complex, -7.2%.

For the molecule `Nc1nc(Nc2ccc(S(N)(=O)=O)cc2)sc1-c1nc(C(=O)Nc2ccccc2)cs1` [N(4), 4′-Amino-2′-(4-sulfamoyl-phenylamino)-[2,5′]bithiazolyl-4 carboxylic acid phenylamide], the Ki at CDK2/Cyclin A complex (Table 3) came out at 158 nM; on CDK4/Cyclin D3 complex (Table 3), 480 nM.

As for `COc1cc(Nc2nc(N)c(C3=NC(C(C)OCc4ccccc4)CO3)s2)cc(OC)c1OC` [I(4), 5-{(4R)-[(1R)-Benzyloxy-ethyl]-4,5-dihydro-oxazol-2-yl}-N^2-(3,4,5-trimethoxyl-phenyl)-thiazole-2,4-diamine], the inhibition at 100 µM on CDK4/Cyclin D3 complex (Table 2) is under 0%.

For the molecule `Nc1nc(N)c(-c2nc(C(=O)c3ccccc3)cs2)s1` [E(4), (2′,4′-Diamino-[2,5′]bithiazolyl-4-yl)-phenyl-methanone], the Ki was determined as 8800 nM at CDK2/Cyclin A complex (Table 2) and 21000 nM at CDK4/Cyclin D3 complex (Table 2).

For `CC(=O)Nc1nc(N)c(-c2nc(C(=O)c3ccccc3)cs2)s1` [F(16), N-(4′-Amino-4-benzoyl-[2,5′]bithiazolyl-2′-yl)-acetamide], on CDK2/Cyclin A complex (Table 3), the Ki was 480 nM. Further, at CDK4/Cyclin D3 complex (Table 3), the inhibition at 5 µM is 35%.

Consider `COc1cc(Nc2nc(N)c(C3=N[C@H](Cc4ccccc4)CO3)s2)cc(OC)c1OC` [I(2), R-5-(4-Benzyl-4,5-dihydro-oxazol-2-yl)-N^2-(3,4,5-trimethoxyl-phenyl)-thiazole-2,4-diamine], for which the inhibition at 100 µM at CDK4/Cyclin D3 complex (Table 2) was under 0%.

The term inhibition denotes the drop in the measured response relative to a control, in per cent. The term Ki denotes a measure of affinity in units of concentration, obtained from inhibition or displacement.

Values taken from patent US6620828B2, “Thiazole compounds and pharmaceutical compositions for inhibiting protein kinases and methods for their use” (Agouron Pharmaceuticals, Inc., priority 1999, dated 2003).
